Experiments:
[1] = biological target: Protein FAM136A (Homo sapiens) (UniProt Q96C01)
[2] = biological target: Heterogeneous nuclear ribonucleoprotein U (Homo sapiens) (UniProt Q00839)
[3] = biological target: AP-1 complex subunit gamma-1 (Homo sapiens) (UniProt O43747)
[4] = biological target: Cytoplasmic dynein 1 light intermediate chain 1 (Homo sapiens) (UniProt Q9Y6G9)
[5] = biological target: Small ribosomal subunit protein uS13 (Homo sapiens) (UniProt P62269)
[6] = biological target: CCR4-NOT transcription complex subunit 1 (Homo sapiens) (UniProt A5YKK6)
[7] = biological target: Eukaryotic translation initiation factor 4B (Homo sapiens) (UniProt P23588)
[8] = biological target: Casein kinase I isoform epsilon (Homo sapiens) (UniProt P49674)
[9] = biological target: Stress-70 protein, mitochondrial (Homo sapiens) (UniProt P38646)
[10] = biological target: Dynein light chain 1, cytoplasmic (Homo sapiens) (UniProt P63167)
[11] = biological target: DAZ-associated protein 1 (Homo sapiens) (UniProt Q96EP5)
[12] = biological target: Mitogen-activated protein kinase kinase kinase 2 (Homo sapiens) (UniProt Q9Y2U5)
[13] = biological target: Cell division cycle protein 23 homolog (Homo sapiens) (UniProt Q9UJX2)
[14] = biological target: Coatomer subunit gamma-2 (Homo sapiens) (UniProt Q9UBF2)
[15] = biological target: Ubiquitin carboxyl-terminal hydrolase 10 (Homo sapiens) (UniProt Q14694)
Cyclin-T1 (Homo sapiens) = Cyclin-T1 (Homo sapiens) (UniProt O60563)
[16] = biological target: Ephrin type-A receptor 1 (Homo sapiens) (UniProt P21709)
[17] = biological target: Elongation factor 2 (Homo sapiens) (UniProt P13639)
[18] = biological target: Arginine--tRNA ligase, cytoplasmic (Homo sapiens) (UniProt P54136)
[19] = biological target: 26S proteasome regulatory subunit 7 (Homo sapiens) (UniProt P35998)
[20] = biological target: Secretory carrier-associated membrane protein 3 (Homo sapiens) (UniProt O14828)
[21] = biological target: Protein LSM12 (Homo sapiens) (UniProt Q3MHD2)
[22] = biological target: Zinc finger CCCH domain-containing protein 11A (Homo sapiens) (UniProt O75152)
[23] = biological target: Probable ATP-dependent RNA helicase DDX5 (Homo sapiens) (UniProt P17844)
[24] = biological target: Large ribosomal subunit protein eL20 (Homo sapiens) (UniProt Q02543)
Cofilin-1 (Homo sapiens) = Cofilin-1 (Homo sapiens) (UniProt P23528)
[25] = biological target: Interleukin-1 receptor-associated kinase 4 (Homo sapiens) (UniProt Q9NWZ3)
[26] = biological target: ATP synthase peripheral stalk subunit b, mitochondrial (Homo sapiens) (UniProt P24539)
[27] = biological target: Protein SDA1 homolog (Homo sapiens) (UniProt Q9NVU7)
[28] = biological target: Actin-related protein 2 (Homo sapiens) (UniProt P61160)
[29] = biological target: RNA-binding protein FUS (Homo sapiens) (UniProt P35637)
[30] = biological target: Proteasome adapter and scaffold protein ECM29 (Homo sapiens) (UniProt Q5VYK3)
Malectin (Homo sapiens) = Malectin (Homo sapiens) (UniProt Q14165)
[31] = biological target: E3 ubiquitin/ISG15 ligase TRIM25 (Homo sapiens) (UniProt Q14258)
[32] = biological target: Programmed cell death 6-interacting protein (Homo sapiens) (UniProt Q8WUM4)
[33] = biological target: Tubulin-specific chaperone D (Homo sapiens) (UniProt Q9BTW9)
Anamorsin (Homo sapiens) = Anamorsin (Homo sapiens) (UniProt Q6FI81)
[34] = biological target: Glycogen phosphorylase, liver form (Homo sapiens) (UniProt P06737)
[35] = biological target: Large ribosomal subunit protein uL30 (Homo sapiens) (UniProt P18124)
[36] = biological target: Inorganic pyrophosphatase (Homo sapiens) (UniProt Q15181)
Vimentin (Homo sapiens) = Vimentin (Homo sapiens) (UniProt P08670)
[37] = biological target: Focal adhesion kinase 1 (Homo sapiens) (UniProt Q05397)
[38] = biological target: ATP-dependent 6-phosphofructokinase, platelet type (Homo sapiens) (UniProt Q01813)
[39] = biological target: D-3-phosphoglycerate dehydrogenase (Homo sapiens) (UniProt O43175)
[40] = biological target: Heterogeneous nuclear ribonucleoprotein F (Homo sapiens) (UniProt P52597)
[41] = biological target: cAMP-dependent protein kinase catalytic subunit alpha (Homo sapiens) (UniProt P17612)
Further: assay method not described here.

Sequence of RNA-binding protein FUS (Homo sapiens) (P35637 whole entry): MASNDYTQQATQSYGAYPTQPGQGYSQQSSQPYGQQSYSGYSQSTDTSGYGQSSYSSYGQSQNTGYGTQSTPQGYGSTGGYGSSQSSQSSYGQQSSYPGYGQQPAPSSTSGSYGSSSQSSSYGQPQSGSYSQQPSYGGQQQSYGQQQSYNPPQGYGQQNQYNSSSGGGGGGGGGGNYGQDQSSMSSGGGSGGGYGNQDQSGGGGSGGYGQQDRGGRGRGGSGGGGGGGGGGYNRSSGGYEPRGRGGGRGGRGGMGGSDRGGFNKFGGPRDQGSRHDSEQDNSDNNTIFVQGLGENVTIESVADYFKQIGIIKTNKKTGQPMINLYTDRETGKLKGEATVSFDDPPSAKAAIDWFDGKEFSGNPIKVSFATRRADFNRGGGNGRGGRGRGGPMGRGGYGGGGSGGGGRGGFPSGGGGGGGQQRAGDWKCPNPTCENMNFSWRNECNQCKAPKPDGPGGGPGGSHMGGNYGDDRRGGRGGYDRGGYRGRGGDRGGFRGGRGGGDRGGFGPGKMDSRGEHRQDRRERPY
Sequence of Heterogeneous nuclear ribonucleoprotein U (Homo sapiens) (Q00839 whole entry): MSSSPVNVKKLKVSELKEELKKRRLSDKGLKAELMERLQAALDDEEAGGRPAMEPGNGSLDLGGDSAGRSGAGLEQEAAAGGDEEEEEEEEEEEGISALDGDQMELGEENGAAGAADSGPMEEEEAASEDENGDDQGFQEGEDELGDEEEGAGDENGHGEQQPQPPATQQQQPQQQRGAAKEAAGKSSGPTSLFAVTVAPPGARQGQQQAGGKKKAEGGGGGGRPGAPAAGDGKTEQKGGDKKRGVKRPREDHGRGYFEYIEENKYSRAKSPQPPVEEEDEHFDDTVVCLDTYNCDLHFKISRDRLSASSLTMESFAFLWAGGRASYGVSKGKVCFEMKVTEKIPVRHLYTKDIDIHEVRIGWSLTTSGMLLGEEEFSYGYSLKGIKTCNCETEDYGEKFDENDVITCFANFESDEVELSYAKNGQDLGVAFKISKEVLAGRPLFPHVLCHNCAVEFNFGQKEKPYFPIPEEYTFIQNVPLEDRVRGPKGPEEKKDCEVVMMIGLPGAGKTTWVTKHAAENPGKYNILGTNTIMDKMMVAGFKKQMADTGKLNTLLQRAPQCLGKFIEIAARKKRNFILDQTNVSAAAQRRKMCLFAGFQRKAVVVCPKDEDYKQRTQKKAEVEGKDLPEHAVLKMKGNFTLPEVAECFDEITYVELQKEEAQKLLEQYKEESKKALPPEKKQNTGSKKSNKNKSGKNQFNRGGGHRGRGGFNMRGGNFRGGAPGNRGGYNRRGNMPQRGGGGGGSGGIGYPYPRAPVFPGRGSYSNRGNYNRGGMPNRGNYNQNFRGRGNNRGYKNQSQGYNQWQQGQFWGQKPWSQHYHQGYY
Sequence of Dynein light chain 1, cytoplasmic (Homo sapiens) (P63167 whole entry): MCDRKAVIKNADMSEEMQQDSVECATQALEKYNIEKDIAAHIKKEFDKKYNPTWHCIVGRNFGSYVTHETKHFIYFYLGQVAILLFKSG
Sequence of Vimentin (Homo sapiens) (P08670 whole entry): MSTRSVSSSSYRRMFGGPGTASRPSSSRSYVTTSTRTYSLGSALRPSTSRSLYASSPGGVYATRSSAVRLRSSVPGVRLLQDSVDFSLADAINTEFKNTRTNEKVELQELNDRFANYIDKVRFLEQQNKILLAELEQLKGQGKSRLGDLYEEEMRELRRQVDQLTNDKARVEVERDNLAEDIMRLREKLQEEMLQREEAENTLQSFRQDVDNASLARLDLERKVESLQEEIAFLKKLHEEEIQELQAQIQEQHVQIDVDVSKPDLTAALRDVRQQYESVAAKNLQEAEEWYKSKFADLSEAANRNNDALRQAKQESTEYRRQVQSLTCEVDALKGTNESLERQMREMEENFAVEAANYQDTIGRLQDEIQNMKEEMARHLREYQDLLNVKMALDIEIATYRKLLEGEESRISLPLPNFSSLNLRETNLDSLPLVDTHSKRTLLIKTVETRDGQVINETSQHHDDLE
Sequence of 26S proteasome regulatory subunit 7 (Homo sapiens) (P35998 whole entry): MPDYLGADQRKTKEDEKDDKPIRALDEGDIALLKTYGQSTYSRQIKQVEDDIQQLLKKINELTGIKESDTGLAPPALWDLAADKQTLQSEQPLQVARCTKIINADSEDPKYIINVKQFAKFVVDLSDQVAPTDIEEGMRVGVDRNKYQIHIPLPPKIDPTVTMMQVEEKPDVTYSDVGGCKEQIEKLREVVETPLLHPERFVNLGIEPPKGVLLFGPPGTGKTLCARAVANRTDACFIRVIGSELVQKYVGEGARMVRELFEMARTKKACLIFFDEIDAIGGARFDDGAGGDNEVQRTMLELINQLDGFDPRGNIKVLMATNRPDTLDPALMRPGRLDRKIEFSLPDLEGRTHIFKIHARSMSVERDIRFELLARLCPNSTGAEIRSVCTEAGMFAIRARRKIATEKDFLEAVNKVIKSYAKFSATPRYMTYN
Sequence of Cofilin-1 (Homo sapiens) (P23528 whole entry): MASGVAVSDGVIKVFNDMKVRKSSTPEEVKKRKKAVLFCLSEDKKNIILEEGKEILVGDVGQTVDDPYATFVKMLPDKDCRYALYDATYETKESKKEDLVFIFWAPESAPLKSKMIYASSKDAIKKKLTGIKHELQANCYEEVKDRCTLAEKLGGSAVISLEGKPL
Sequence of Cytoplasmic dynein 1 light intermediate chain 1 (Homo sapiens) (Q9Y6G9 whole entry): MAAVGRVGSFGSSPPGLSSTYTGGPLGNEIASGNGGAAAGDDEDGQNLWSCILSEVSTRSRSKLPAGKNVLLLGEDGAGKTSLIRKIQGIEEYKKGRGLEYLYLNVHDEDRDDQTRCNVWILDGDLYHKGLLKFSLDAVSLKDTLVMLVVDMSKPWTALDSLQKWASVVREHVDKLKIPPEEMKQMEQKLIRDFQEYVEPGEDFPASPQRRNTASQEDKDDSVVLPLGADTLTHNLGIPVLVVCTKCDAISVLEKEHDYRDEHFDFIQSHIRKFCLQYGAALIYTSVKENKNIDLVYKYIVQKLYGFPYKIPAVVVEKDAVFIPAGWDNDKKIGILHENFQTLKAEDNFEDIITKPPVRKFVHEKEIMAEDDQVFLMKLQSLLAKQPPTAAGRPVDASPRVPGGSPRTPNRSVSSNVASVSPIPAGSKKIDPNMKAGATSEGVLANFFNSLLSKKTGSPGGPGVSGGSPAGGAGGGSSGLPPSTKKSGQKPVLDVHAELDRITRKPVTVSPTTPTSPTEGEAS
Sequence of Protein LSM12 (Homo sapiens) (Q3MHD2 whole entry, the tested form may be a part): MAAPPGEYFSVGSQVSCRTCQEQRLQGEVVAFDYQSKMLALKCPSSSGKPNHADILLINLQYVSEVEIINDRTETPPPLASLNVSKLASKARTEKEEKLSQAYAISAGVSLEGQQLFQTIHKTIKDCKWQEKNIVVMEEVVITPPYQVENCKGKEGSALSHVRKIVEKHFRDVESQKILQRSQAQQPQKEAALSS
Sequence of Secretory carrier-associated membrane protein 3 (Homo sapiens) (O14828 whole entry): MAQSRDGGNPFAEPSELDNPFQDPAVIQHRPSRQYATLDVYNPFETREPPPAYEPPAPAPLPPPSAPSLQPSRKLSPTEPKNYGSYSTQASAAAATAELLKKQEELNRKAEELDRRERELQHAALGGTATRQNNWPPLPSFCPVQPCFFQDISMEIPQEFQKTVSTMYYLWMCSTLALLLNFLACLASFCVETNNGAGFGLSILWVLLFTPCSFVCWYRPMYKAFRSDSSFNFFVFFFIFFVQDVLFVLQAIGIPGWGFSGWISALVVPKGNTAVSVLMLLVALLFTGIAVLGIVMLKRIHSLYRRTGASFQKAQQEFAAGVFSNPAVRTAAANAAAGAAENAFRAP
Sequence of Inorganic pyrophosphatase (Homo sapiens) (Q15181 whole entry): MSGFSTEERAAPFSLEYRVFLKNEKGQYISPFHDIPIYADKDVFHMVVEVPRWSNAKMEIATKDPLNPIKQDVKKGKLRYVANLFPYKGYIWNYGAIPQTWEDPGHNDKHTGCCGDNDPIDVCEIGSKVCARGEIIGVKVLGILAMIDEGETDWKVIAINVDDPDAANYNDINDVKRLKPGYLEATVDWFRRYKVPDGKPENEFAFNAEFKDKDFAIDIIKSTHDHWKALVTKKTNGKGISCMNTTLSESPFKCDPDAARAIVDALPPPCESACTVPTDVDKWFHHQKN
Sequence of Coatomer subunit gamma-2 (Homo sapiens) (Q9UBF2 whole entry): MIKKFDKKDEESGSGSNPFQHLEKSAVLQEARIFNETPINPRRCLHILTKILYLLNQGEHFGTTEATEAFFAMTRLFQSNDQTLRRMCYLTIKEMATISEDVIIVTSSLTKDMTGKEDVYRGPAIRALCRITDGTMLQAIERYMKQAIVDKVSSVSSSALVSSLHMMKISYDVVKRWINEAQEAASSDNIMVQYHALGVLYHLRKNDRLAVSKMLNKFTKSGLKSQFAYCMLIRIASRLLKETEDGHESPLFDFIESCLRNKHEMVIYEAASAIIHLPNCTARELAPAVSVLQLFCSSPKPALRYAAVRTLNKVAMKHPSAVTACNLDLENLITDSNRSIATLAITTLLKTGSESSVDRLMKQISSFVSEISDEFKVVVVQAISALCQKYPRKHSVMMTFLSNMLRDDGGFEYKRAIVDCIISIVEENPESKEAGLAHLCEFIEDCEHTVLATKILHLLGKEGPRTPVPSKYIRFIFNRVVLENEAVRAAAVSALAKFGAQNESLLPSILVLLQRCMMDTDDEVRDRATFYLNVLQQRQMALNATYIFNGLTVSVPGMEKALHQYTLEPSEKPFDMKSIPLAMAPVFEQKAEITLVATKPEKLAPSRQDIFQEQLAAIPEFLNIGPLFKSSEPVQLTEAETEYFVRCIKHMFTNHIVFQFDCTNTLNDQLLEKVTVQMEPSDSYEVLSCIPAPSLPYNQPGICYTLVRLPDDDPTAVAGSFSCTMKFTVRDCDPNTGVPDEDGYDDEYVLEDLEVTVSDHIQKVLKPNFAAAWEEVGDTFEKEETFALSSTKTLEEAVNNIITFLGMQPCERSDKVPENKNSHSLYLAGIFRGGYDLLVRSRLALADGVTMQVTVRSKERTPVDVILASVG
Sequence of Protein FAM136A (Homo sapiens) (Q96C01 whole entry): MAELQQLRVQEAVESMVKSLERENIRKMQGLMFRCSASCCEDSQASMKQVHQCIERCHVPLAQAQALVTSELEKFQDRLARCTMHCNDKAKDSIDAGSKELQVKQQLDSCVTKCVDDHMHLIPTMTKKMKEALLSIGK

`Cc1ccc(C(=O)Nc2cccc(C(F)(F)F)c2)cc1Nc1nc(-c2cccnc2)nc2c1cnn2C` was tested, and the ED50 [1] was 43 nM, the ED50 [2] was 1.95e-05 mM and the ED50 [3] was 163 nM. It also gave an ED50 [4] of 24.4 nM, an ED50 [5] of 2790 nM and an ED50 [6] of 68.8 nM. For the same compound, the ED50 [7] was 449 nM, the ED50 (Homo sapiens) was 3750 nM and the ED50 [8] was 4260 nM. It also gave an ED50 [9] of 31.4 nM, an ED50 [10] of 15.5 nM and an ED50 [11] of 124 nM. It also gave an ED50 [12] of 0.1 µM, an ED50 [13] of 53.5 nM and an ED50 [14] of 7.49 µM. It also gave an ED50 [15] of 4330 nM, an ED50 (Cyclin-T1 (Homo sapiens)) of 16.8 nM and an ED50 [16] of 64 nM. For the same compound, the ED50 [17] was 4.03 µM, the ED50 [18] was 886 nM and the ED50 [19] was 84.1 µM. It also gave an ED50 [20] of 2.92 nM, an ED50 [21] of 5.19 nM and an ED50 [22] of 149 nM. The ED50 [23] was 1160 nM, the ED50 [24] was 98.1 nM and the ED50 (Cofilin-1 (Homo sapiens)) was 7.3 µM. The ED50 [25] was 0.466 µM, the ED50 [26] was 11.5 µM and the ED50 [27] was 65 nM. The ED50 [28] was 0.174 µM, the ED50 [29] was 17.5 nM and the ED50 [30] was 11 µM. For the same compound, the ED50 (Malectin (Homo sapiens)) was 95.1 µM, the ED50 [31] was 401 µM and the ED50 [32] was 4.91 µM. For the same compound, the ED50 [33] was 4.59 nM, the ED50 (Anamorsin (Homo sapiens)) was 0.0673 µM and the ED50 [34] was 2.39 nM. For the same compound, the ED50 [35] was 0.0167 µM, the ED50 [36] was 8.44 µM and the ED50 (Vimentin (Homo sapiens)) was 1030 nM. The ED50 [37] was 10.4 µM, the ED50 [38] was 9.49 µM and the ED50 [39] was 0.00945 µM. For the same compound, the ED50 [40] was 22.6 µM and the ED50 [41] was 12.9 mM.

Work on `Cc1ccc(C(=O)Nc2cccc(C(F)(F)F)c2)cc1Nc1nc(-c2cccnc2)nc2nn(C)cc12` yielded an ED50 [1] of 4630 nM, an ED50 [2] of 13.2 mM and an ED50 [3] of 1370 nM. The ED50 [4] was 897 nM, the ED50 [5] was 6.91 nM and the ED50 [6] was 20.3 nM. It also gave an ED50 [7] of 0.1 nM, an ED50 (Homo sapiens) of 285 nM and an ED50 [8] of 4.08 nM. The ED50 [9] was 30.8 nM, the ED50 [10] was 5160 nM and the ED50 [11] was 26.4 nM. For the same compound, the ED50 [12] was 9.44 µM, the ED50 [13] was 2590 nM and the ED50 [14] was 0.051 µM. It also gave an ED50 [15] of 38.7 nM, an ED50 (Cyclin-T1 (Homo sapiens)) of 50.2 nM and an ED50 [16] of 4580 nM. For the same compound, the ED50 [17] was 12.5 µM, the ED50 [18] was 443 nM and the ED50 [19] was 232 µM. It also gave an ED50 [20] of 1010 nM, an ED50 [21] of 5580 nM and an ED50 [22] of 3880 nM. The ED50 [23] was 15.7 nM, the ED50 [24] was 3150 nM and the ED50 (Cofilin-1 (Homo sapiens)) was 0.0624 µM. It also gave an ED50 [25] of 647 µM, an ED50 [26] of 0.0113 µM and an ED50 [27] of 0.949 nM. The ED50 [28] was 17 µM, the ED50 [29] was 36.6 nM and the ED50 [30] was 1.15 µM. The ED50 (Malectin (Homo sapiens)) was 7.05 µM, the ED50 [31] was 0.0528 µM and the ED50 [32] was 4.24 µM. It also gave an ED50 [33] of 5.42 nM, an ED50 (Anamorsin (Homo sapiens)) of 78.8 µM and an ED50 [34] of 5790 nM. It also gave an ED50 [35] of 12.3 µM, an ED50 [36] of 1.31 µM and an ED50 (Vimentin (Homo sapiens)) of 1620 nM. It also gave an ED50 [37] of 0.0476 µM, an ED50 [38] of 0.00571 µM and an ED50 [39] of 15 µM. It also gave an ED50 [40] of 0.349 µM and an ED50 [41] of 6.43e-05 mM.
